Measurements: US20240294488A1, “ISOTOPOLOGES, SALTS, CRYSTALLINE FORMS, STEREOISOMERS, OF METHYLONE AND ETHYLONE AND METHODS OF USE THEREOF” (Terran Biosciences Inc., priority 2021, published 2024)
Structures can show the parent of a compound that is named as a salt.

Assay: Dynamic vapor sorption (DVS)
Assay type: physicochemical
Description: The sample for moisture analysis was allowed to dry at 25° C. for up to 4 hours under a stream of dry nitrogen. The relative humidity is then increased stepwise from 10 to 90% relative humidity (adsorption scan) allowing the sample to equilibrate for a maximum of four hours before weighing and moving on to the next step. The desorption scan is measured from 85 to 0% relative humidity with the same equilibration time. The sample is then dried under a stream of dry nitrogen at 80° C. for 2 hours or until no weight loss is observed.
DVS analysis was carried out using a TA Instruments Q5000 Dynamic Vapor Sorption analyzer. The instrument was calibrated with standard weights and a sodium bromide standard for humidity. Approximately 10-25 mg of sample was loaded into a metal-coated quartz pan for analysis. The sample was analyzed at 25° C. with a maximum equilibration time of one hour in 10% relative humidity (RH) steps from 5 to 95% RH (adsorption cycle) and from 95 to 5% RH (desorption cycle). The movement from one step to the next occurred either after satisfying the equilibrium criterion of 0.01% weight change or, if the equilibrium criterion was not met, after one hour. The percent weight change values were calculated.

SMILES: CNC(C)C(=O)c1ccc2c(c1)OCO2 (racemic) [(rac)-Methylone Hydrochloride, 3,4-methylenedioxy-N-methylcathinone hydrochloride]
- relative humidity above which water uptake occurs (DVS, FIG. 26): above 75 % RH
- physical stability after moisture sorption-desorption analysis (between 5% RH and 95% RH): physically stable
- water gain (between 5% RH and 95% RH): 0.33%
- water loss (between 95% RH and 5% RH): 0.15%
- appearance after humidity exposure (exposed to 75% RH for 2 hours): became tacky and stuck to the vial
